These results are taken from patent US20090298903A1, “USE OF TETRAMIC ACID DERIVATIVES FOR INSECT CONTROL” (priority 2006, published 2009).

Holding throughout (format): in vivo
One test concerns Ceutorhynchus napi. The test is described as follows: Example 26-A: oilseed rape against Ceutorhynchus napi. As to conditions: 55 d after treatment, larvae, Deltamethrin (25 EC) 5, (I-4) (+ 0.2% rapeseed oil methyl ester) 72, Thiacloprid (OD 240) 72, Lambda-cyhalothrin 5 g a.s./ha. The protocol: Plots approx. 25 m^2 in size which are planted with oilseed rape cv. “Artus” are treated, in four replications, against Ceutorhynchus napi. The application is carried out with a motor-operated knapsack sprayer. Here, the active substance Example (I-4), in a tank mix with 0.2% a.s. rapeseed oil methyl ester (500 EW) and the commercial standards Deltamethrin (25 EC), lambda-cyhalothrin (S100) and Thiacloprid (OD 240), is tested at the specified application rates. The water application rate is 250 l/ha.
The test is evaluated 55 days after the treatment by scoring the destruction rate of the larvae on the plants.

Test [1] concerns Frankliniella occidentalis. The experiment in a line: Example 2: bell peppers against Frankliniella occidentalis. The conditions noted are these: Acrinathrin 60, (I-9) 54, (I-4) 60 g a.s./ha, (I-9)/(I-4) 240 SC + 0.1% rapeseed oil methyl ester. The protocol: Plots 10 m^2 in size which are planted with bell peppers cv. “Zingaro” are treated, in three replications, against Frankliniella occidentalis. The application is effected with a knapsack sprayer which is operated with pressurized air. Here, the active substances Example (I-9) (240 SC) and Example (I-4) (240 SC), in the form of a tank mix together with 0.1% a.s. rapeseed oil methyl ester (500 EW) and the commercial standard acrinathrin (075 EW), are applied at the specified application rates. Two applications are carried out at an interval of 24 days, with a water application rate of 1000 l/ha.
The test is evaluated 17 and 21 days after treatment 1 and 4 days after treatment 2 by scoring the destruction of the animals (nymphs) on the flowers.

Another test relates to Empoasca biguttula. The test is described as follows: Example 12: cotton against Empoasca biguttula. The protocol:
Plots 10 m^2 in size which are planted with cotton are treated, in three replications, against Empoasca biguttula. The application is carried out with a knapsack sprayer operated with pressurized air. Here, the active substance Example (I-4) (240 SC), in a tank mix with 0.2% a.s. rapeseed oil methyl ester (500 EW), is tested against the commercial standards Imidacloprid (SL 100) and Buprofezin (WP50) at the specified application rates. Two applications are carried out at an interval of 7 days. The water application rate is 750 l/ha.
The test is evaluated 3, 7, 14 and 21 days after the second treatment by counting the live animals. Thereafter, the efficacy is calculated in percent, using the formula of Henderson and Tilton.

Another test concerns Liriomyza sp. The test is described as follows: Example 18: beans against Liriomyza sp. As to conditions: for Efficacy (% Abbott) 2 d: 2 d after first treatment, 10 leaves, Cyromazine (WP 75) 130, (I-4) (150 OD) 100, Abamectin (EC 018) 14.4 g a.s./ha, three applications, 7-day intervals; for Efficacy (% Abbott) 7 d: 7 d after first treatment; for Efficacy (% Abbott) 7 d / Efficacy (% Abbott) 12 d / Efficacy (% Abbott) 18 d / Efficacy (% Abbott) 20 d / Efficacy (% Abbott) 25 d: Cyromazine 130, (I-4) 100, Abamectin 14.4 g a.s./ha; for Efficacy (% Abbott) 12 d: 12 d after first treatment; for Efficacy (% Abbott) 18 d: 18 d after first treatment; for Efficacy (% Abbott) 20 d: 20 d after first treatment; for Efficacy (% Abbott) 25 d: 25 d after first treatment. The protocol:
Plots approx. 10 m^2 in size which are planted with beans cv. “Lago Azul” are treated, in three replications, against Liriomyza sp. Here, the active substance Example (I-4) (150 OD) and the commercial standards Cyromazine (WP 75) and Abamectin (EC 018) are applied at the specified application rates, using a knapsack sprayer which is operated with pressurized gas. The water application rate is 400 and 500 l/ha., respectively. Three applications are carried out at intervals of in each case 7 days.
The destruction rate in percent is determined on in each case 10 leaves. 2, 7, 12, 18, 20 and 25 days after the first treatment, the following results are obtained: […]

A further test concerns Scirtothrips dorsalis. The test is described as follows: Example 10: tea plants against Scirtothrips dorsalis. As to conditions: 7 d after treatment, nymphs, Ethiprole (SC10) 0.005, (I-4) (100 OD) 0.01, Imidacloprid (50 WG) 0.005 % a.s. On the procedure:
Plots approx. 5 m^2 in size which are planted with tea plants cv. “Yabukita” which are approximately 18 years old are treated, in three replications, against Scirtothrips dorsalis. Here, the active substance Example (I-4) (100 OD) is tested, at the specified application rates, against the commercial standards Ethiprole (SC10 flowable) and Imidacloprid (50 WG). The application is carried out with a sprayer which is operated with pressurized air. The water application rate is 4500 l/ha. The test is evaluated 7 days after the treatment by scoring the destruction rate of the nymphs and the plants.

For a further test, the system named is Dacus ciliatus. The experiment in a line: Example 22A: bottle gourds against Dacus ciliatus. The protocol:
Plots approx. 10 m^2 in size which are planted with bottle gourds cv. “Waltham” are treated, in three replications, against Dacus ciliatus. The application is carried out with a motor-operated knapsack sprayer. Here, the active substance Example (I-4) (150 OD) and the commercial standard Fenthion (500 EC) are tested at the specified application rates. Three applications are carried out at in each case an interval of 7 days. The water application rate is approx. 500 l/ha.
The test is evaluated 8, 14 and 21 days after treatment 1 by scoring the infestation of the fruits.

The next test relates to Ceratitis capitata. The experiment in a line: Example 20: peach trees against Ceratitis capitata. The conditions noted are these: animals on fruits. On the procedure: Peach trees cv. “Oom Sarel” which are approximately 10 years old are treated, in three replications, against Ceratitis capitata. The application is carried out with a high-pressure sprayer or a knapsack sprayer which is operated with pressurized air. Here, the active substance Example (I-4) (150 OD) and the commercial standard Fenthion (500 EC) are tested at the specified application rates. The water application rate is 2500 l/ha. Three applications are carried out at an interval of 7 and 19 days, respectively.
The test is evaluated 9 and 16 days after treatment 3 by scoring the destruction rate of the animals on the fruits with the aid of the Abbott formula.

For test [2], the system named is olive fruit fly (Dacus oleae). The experiment in a line: Example 22B: laboratory experiment, olives against olive fruit fly. As to conditions: olives treated three days after oviposition; Imidacloprid (200 SL) 0.01 %, (I-4) (100 OD) 0.02 %, Fenthion (500 EC) 0.05 %; untreated 84.4. On the procedure:
In a laboratory experiment, 40 olives are treated, in four replications, against the olive fruit fly (Dacus oleae) three days after oviposition. Here, the active substance (I-4) (100 OD) and the commercial standards Fenthion (500 EC) and Imidacloprid (200 SL) are tested at the specified application rates.
The test is evaluated 14 days after oviposition by counting the number of feeding tunnels (larval development completed), while the absence of such feeding tunnels indicates the efficacy against the larvae.

A further test concerns Idioscopus clypealis. The test is described as follows: Example 14: mango tree against Idioscopus clypealis. As to conditions: nymphs on infructescences. On the procedure:
A mango tree which is approximately 14 years old is treated, in three replications, against Idioscopus clypealis. The application is carried out with a high-pressure sprayer. Here, the active substance Example (I-4) (240 SC), in a tank mix with 0.2% a.s. rapeseed oil methyl ester (500 EW) and the commercial standards Imidacloprid (100 SL) and Pymetrozine (WP 25), is tested at the specified application rates. The amount of spray mixture is 10 l/tree. Five treatments are carried out at intervals of 7, 14, 21 and 28 days.
The test is evaluated in each case 7 days after treatments 3 to 5 by scoring the destruction rate of the nymphs on the infructescences.

Test [3] concerns Frankliniella occidentalis. The test is described as follows: Example 5: aubergines against Frankliniella occidentalis. The conditions noted are these: mixed populations on leaves. The protocol:
Plots 6 m^2 in size which are planted with aubergines cv. “Soraya” are treated, in three replications, against Frankliniella occidentalis. The application is effected with a motor-operated knapsack sprayer. Here, the active substances Example (I-4) (240 SC) and Example (I-9) (240 SC), in a tank mix together with 0.1% a.s. rapeseed oil methyl ester (500 EW) and the commercial standard Spinosad (480 SC), are tested at the specified application rates. The water application rate is 1500 l/ha.
The test is evaluated 25, 32 and 39 days after the treatment by scoring the destruction rate of the mixed populations on the leaves.

[4] abbreviates: Imidacloprid 0.00025 %, (I-4) 0.0016 %, Pymetrozine 0.002 %.

With `CC1(C)[C@H](C(=O)O[C@H](C#N)c2cccc(Oc3ccccc3)c2)[C@@H]1/C=C(\Cl)C(F)(F)F` (racemic) [Lambda-cyhalothrin, lambda-cyhalothrin], in the test with Ceutorhynchus napi, the “Efficacy (% Abbott) 55 d” value is given as 89.5 % Abbott.
Turning to `CC1(C)[C@H](C(=O)O[C@H](C#N)c2cccc(Oc3ccccc3)c2)[C@@H]1/C=C\C(=O)OC(C(F)(F)F)C(F)(F)F` [Acrinathrin, acrinathrin], the “Efficacy (% Abbott) 4 d (2)” value in test [1] (4 d after treatment 2, nymphs on flowers) is listed as 87 % Abbott. The “Efficacy (% Abbott) 17 d (1)” value in [1] (17 d after treatment 1, nymphs on flowers) was determined as 98 % Abbott. Moreover, the “Efficacy (% Abbott) 21 d (1)” value in test [1] (21 d after treatment 1, nymphs on flowers) is reported as 91 % Abbott.
Consider `CC(C)N1C(=O)N(c2ccccc2)CS/C1=N\C(C)(C)C` [Buprofezin], for which the “Efficacy (% H + T) 3 d” value in the test with Empoasca biguttula (3 d after second treatment, Henderson and Tilton, Imidacloprid (SL 100) 30, (I-4) (240 SC + 0.2% rapeseed oil methyl ester) 24, Buprofezin (WP50) 50 g a.s./ha) is reported as 96.5 % H + T. Besides, the “Efficacy (% H + T) 7 d” value in the test on Empoasca biguttula (7 d after second treatment, Imidacloprid 30, (I-4) 24, Buprofezin 50 g a.s./ha) came out at 94.7 % H + T. In the test on Empoasca biguttula (14 d after second treatment, Imidacloprid 30, (I-4) 24, Buprofezin 50 g a.s./ha), the “Efficacy (% H + T) 14 d” value turned out to be 90.1 % H + T. Besides, the “Efficacy (% H + T) 21 d” value in the test on Empoasca biguttula (21 d after second treatment, Imidacloprid 30, (I-4) 24, Buprofezin 50 g a.s./ha) is listed as 67.1 % H + T.
For `Nc1nc(N)nc(NC2CC2)n1` [Cyromazine], in the test with Liriomyza sp., the “Efficacy (% Abbott) 2 d” value stood at 44 % Abbott, the “Efficacy (% Abbott) 7 d” value was determined as 61 % Abbott, the “Efficacy (% Abbott) 12 d” value was 42 % Abbott and the “Efficacy (% Abbott) 18 d” value is 54 % Abbott. Also, in the test with Liriomyza sp., the “Efficacy (% Abbott) 20 d” value was 32 % Abbott and the “Efficacy (% Abbott) 25 d” value is recorded as 0 % Abbott.
`CC[S+]([O-])c1c(C#N)nn(-c2c(Cl)cc(C(F)(F)F)cc2Cl)c1N` (stereo not drawn) [Ethiprole]: in the test on Scirtothrips dorsalis, the “Efficacy (% Abbott) 7 d” value is recorded as 100 % Abbott.
Turning to `COP(=S)(OC)Oc1ccc(SC)c(C)c1` [Fenthion], the “Efficacy (% Abbott) 8 d” value with Dacus ciliatus (8 d after treatment 1, infestation of fruits, Fenthion (500 EC) 300, (I-4) (150 OD) 200 g a.s./ha, three applications, 7-day intervals) is 59.6 % Abbott. Also, in the test on Dacus ciliatus (14 d after treatment 1, Fenthion 300, (I-4) 200 g a.s./ha), the “Efficacy (% Abbott) 14 d” value was 48.9 % Abbott. Moreover, in the test with Dacus ciliatus (21 d after treatment 1, Fenthion 300, (I-4) 200 g a.s./ha), the “Efficacy (% Abbott) 21 d” value turned out to be 60.3 % Abbott. Also, in the test with Ceratitis capitata (Fenthion 1700, (I-4) 100 g a.s./ha), the “Efficacy (% Abbott) 16 d after treatment 3” value is given as 88.9 % Abbott. Besides, the “Efficacy (% Abbott) 9 d after treatment 3” value in the test on Ceratitis capitata (Fenthion (500 EC) 1700, (I-4) (150 OD) 100 g a.s./ha) was determined as 86.7 % Abbott. Besides, the “Number of feeding tunnels (%) 14 days after oviposition” value in test [2] is on record as 1.9%.
Take `CC1=NNC(=O)N(/N=C/c2cccnc2)C1` [Pymetrozine]: in the test on Idioscopus clypealis (setting [4]), the “Efficacy (% Abbott) 7 days after treatment 4” value was 98.6 % Abbott and the “Efficacy (% Abbott) 7 days after treatment 5” value came to 94.8 % Abbott. Moreover, the “Efficacy (% Abbott) 7 days after treatment 3” value in the test on Idioscopus clypealis (Imidacloprid (100 SL) 0.00025 %, (I-4) (240 SC + 0.2% rapeseed oil methyl ester) 0.0016 %, Pymetrozine (WP 25) 0.002 %) is 70.9 % Abbott.
Take Abamectin: in the test with Liriomyza sp., the “Efficacy (% Abbott) 2 d” value is recorded as 36 % Abbott, the “Efficacy (% Abbott) 7 d” value is given as 80 % Abbott, the “Efficacy (% Abbott) 12 d” value was determined as 52 % Abbott and the “Efficacy (% Abbott) 18 d” value was 70 % Abbott. In addition, in the test on Liriomyza sp., the “Efficacy (% Abbott) 20 d” value is listed as 43 % Abbott and the “Efficacy (% Abbott) 25 d” value is reported as 60 % Abbott.
Take Spinosad: the “Efficacy (% Abbott) 25 d” value in test [3] (25 d after treatment, Spinosad (480 SC) 0.012, (I-9) 0.0054, (I-4) 0.012 % a.s., 240 SC + 0.1% rapeseed oil methyl ester) was determined as 94.7 % Abbott. Besides, in test [3] (32 d after treatment, Spinosad 0.012, (I-9) 0.0054, (I-4) 0.012 % a.s.), the “Efficacy (% Abbott) 32 d” value is recorded as 89.3 % Abbott. Also, the “Efficacy (% Abbott) 39 d” value in test [3] (39 d after treatment, Spinosad 0.012, (I-9) 0.0054, (I-4) 0.012 % a.s.) is on record as 95.3 % Abbott.
